Measured values as given in the OPERA property sets (Mansouri et al. 2018).

Conditions: for log10 BCF / log10 biotransformation half-life (days): fish

| SMILES | boiling point [°C] | melting point [°C] | other results |
| --- | --- | --- | --- |
| CP(=O)(O)CCC(N)C(=O)O (stereo not drawn) | – | – | log10 Koc (L/kg): 2.63; ready biodegradability: readily biodegradable |
| CC(O)c1ccco1 (stereo not drawn) | 162 | – | – |
| C=C/C=C\CC1=C(C)[C@@H](OC(=O)[C@@H]2[C@@H](/C=C(\C)C(=O)OC)C2(C)C)CC1=O | – | – | log10 vapour pressure (mmHg): -6.4 |
| CC1=CC(=O)C[C@H](C)C1 | 208 | – | – |
| Nc1ccc(S(=O)(=O)c2ccc(NCC(=O)O)cc2)cc1 | – | 194 | – |
| Cc1cc(C(C)(C)C)c(C)cc1O | 264 | 71.2 | – |
| c1ccc(C2(N3CCCCC3)CCCCC2)cc1 | – | 46.5 | – |
| C=C[Si](C)(C)Cl | 83.5 | – | – |
| c1ccccc1 | 80 | – | log10 Henry constant (atm·m³/mol): -2.26; log10 Koa: 2.78; log10 Koc (L/kg): 1.75; log10 biodegradation half-life (days): 0.778; log10 vapour pressure (mmHg): 1.98; ready biodegradability: readily biodegradable; log10 BCF: 0.63 |
| O=C(Nc1ccccc1)N(Cc1ccc(Cl)cc1)C1CCCC1 | – | 130 | log10 Henry constant (atm·m³/mol): -11.3; log10 vapour pressure (mmHg): -11.4 |
| C=C(Cl)C(=O)O | – | 66 | – |
| Oc1ccc2ccccc2c1/N=N/c1ccc(/N=N\c2ccccc2)cc1 | – | 195 | – |
| Cc1cc(=O)c2ccccc2[nH]1 | – | 234 | – |
| O=C(NC(=O)c1ccccc1Cl)Nc1ccc(OC(F)(F)F)cc1 | – | 195 | log10 vapour pressure (mmHg): -9.52 |
| CN1CCN(C)CC1 | 131 | – | – |
| CC[SiH2]CC | 57 | -134 | – |
| Clc1cccc(-c2c(Cl)cccc2Cl)c1Cl | – | – | log10 biotransformation half-life (days): 2.18 |
| CCCCCCCC(C)C | 167 | -74.6 | log10 vapour pressure (mmHg): 0.276 |
| Cc1c(Cl)ccc(OC(C)C(O)=Nc2ccccc2)c1Cl (stereo not drawn) | – | 146 | – |
| CC(C)(C#N)N=NC(C)(C)C#N | – | – | ready biodegradability: not readily biodegradable |
| C=C(C)CCC(C)C | 112 | – | – |
| Cc1ccnc(C)c1C | 192 | – | – |
| CCBr | 38.5 | -119 | log10 Koa: 2.11; log10 vapour pressure (mmHg): 2.67; ready biodegradability: not readily biodegradable |
| CCCCCCCCCCCC(=O)OC(=O)CCCCCCCCCCC | – | 41.8 | – |
| FC(F)(F)c1cccc(Br)c1 | 152 | 1 | – |
| CC(=O)[C@H]1CC[C@H]2[C@@H]3CC[C@@H]4CC(=O)CC[C@]4(C)[C@H]3CC[C@]12C | – | 123 | – |

| SMILES | boiling point [°C] | melting point [°C] | other results |
| --- | --- | --- | --- |
| Brc1ccc(Oc2ccccc2Br)c(Br)c1 | – | – | logP: 5.74 |
| CC(C)[C@@H](C)/C=C/[C@@H](C)[C@H]1CC[C@H]2/C(=C/C=C3\C[C@@H](O)CC[C@@H]3C)CCC[C@]12C | – | 126 | – |
| C1=COCCO1 | 94.1 | – | – |
| C=C(C)C(C)CCC (stereo not drawn) | 110 | – | – |
| CCC(C)(Cl)CCl (stereo not drawn) | 134 | – | – |
| CCNc1nc(NC(C)C)nc(SC)n1 | 345 | 88 | log10 Koc (L/kg): 2.59; log10 vapour pressure (mmHg): -5.56; ready biodegradability: not readily biodegradable |
| Nc1ccc2cc(S(=O)(=O)O)cc(O)c2c1 | – | – | ready biodegradability: not readily biodegradable; log10 BCF: 0.61 |
| CCCCCCC(=O)CCC | 206 | -9 | – |
| NC(=O)c1ccc(Br)cc1 | – | 192 | – |
| CCOC(=O)CC(=O)CC(=O)OCC | 250 | – | – |
| CCCC1CCCCC1 | 157 | -94.9 | log10 vapour pressure (mmHg): 0.622 |
| CCOC(=O)CC(=O)CCl | – | -8 | – |
| CCCCCCCCCCCCCCC1CCCCC1 | 360 | 24 | – |
| C=CCN | 53.3 | -88.2 | log10 vapour pressure (mmHg): 2.38 |
| FC(Cl)C(F)(F)C(F)(F)Cl (stereo not drawn) | 56.1 | – | log10 vapour pressure (mmHg): 2.46 |
| Cc1ccc(Cl)c(Nc2ccccc2C(=O)O)c1Cl | – | 257 | – |
| CCC(C)(C)c1cc(O)c(C(C)(C)CC)cc1O | – | 180 | – |
| Cc1cc[nH]n1 | 204 | 36.5 | – |
| CN1CSC(=S)N(C)C1 | – | 106 | log10 Henry constant (atm·m³/mol): -9.58; log10 Koc (L/kg): 1; log10 vapour pressure (mmHg): -5.55; ready biodegradability: not readily biodegradable |
| CC(C)(C)c1cc(O)c(C(C)(C)C)cc1O | – | 218 | – |
| CC(C)OC(=O)C(C)(C)Oc1ccc(C(=O)c2ccc(Cl)cc2)cc1 | – | 80.5 | – |
| CC(C)(C)OC=O | 82.5 | – | log10 Henry constant (atm·m³/mol): -3.16 |
| c1ccc2nc3ccccc3cc2c1 | 346 | 108 | log10 Koc (L/kg): 4.18; log10 vapour pressure (mmHg): -3.87; log10 BCF: 2.1 |
| C=C1CC=C(C(C)C)CC1 | 174 | – | – |
| CCCCCCCN | 156 | -18 | log10 vapour pressure (mmHg): 0.438 |
| NC(=O)C(F)(F)F | 162 | 72.5 | – |

| SMILES | boiling point [°C] | melting point [°C] | other results |
| --- | --- | --- | --- |
| CCN(CC)c1cccc2ccccc12 | 285 | – | – |
| O=C=NCCCCCCN=C=O | 255 | -67 | – |
| C=C[C@H]1C[N@@]2CCC1C[C@H]2c1[nH]c2ccccc2c1CCO | – | 186 | – |
| O=C(O)CCCc1ccccc1 | 290 | 52 | – |
| CCCCCc1ccc(O)cc1 | 250 | 23 | – |
| CCCCCCCCCCC(Br)C(=O)O (stereo not drawn) | – | 32 | – |
| N#CCCl | 126 | – | log10 vapour pressure (mmHg): 1.18 |
| CCCCCCCCCCCCCCCCCCCBr | – | – | log10 vapour pressure (mmHg): -5.65 |
| CC(=O)[O-].[NH4+] | – | 114 | – |
| CC1(c2ccccc2)CCOCO1 (stereo not drawn) | 256 | 37.5 | – |
| BrCCI | 163 | 28 | – |
| CCC1(CCC(C)C)C(=O)NC(=O)NC1=O | – | 157 | – |
| ClCc1ccc(Br)cc1 | 236 | 50 | – |
| CC(C)(C)CO | 114 | 52.5 | log10 vapour pressure (mmHg): 1.2 |
| Cc1ccc2c(c1N)C(=O)c1ccccc1C2=O | – | 206 | log10 Koc (L/kg): 3.9 |
| C=CCCCCCCCCO | 236 | – | – |
| CCCCCCCCCCCCCCCCCCCCCCCCCCCCCC(=O)O | – | 93.6 | – |
| Nc1ccc2ccccc2c1N | – | 98.5 | – |
| C[C@@H]1CC[C@H]2C(C)(C)[C@H]3C[C@@]12CC[C@@]3(C)O | – | 86 | – |
| CC[N+](CC)(CC)CCOC(=O)C(C1CCCC1)C1CCCC1.[Br-] | – | 186 | – |
| C=CC(Cl)CCl (stereo not drawn) | 116 | -61 | log10 vapour pressure (mmHg): 1.34; ready biodegradability: not readily biodegradable; log10 BCF: 1.11; log10 biotransformation half-life (days): -1.28 |
| CCCOC(=O)Nc1ccccc1 | – | – | log10 Koc (L/kg): 2.06 |
| O=C(O)C(Cc1ccccc1)C(=O)O | – | 121 | – |
| C[N+](C)(C)CCOC(Cc1ccccc1)c1ccccc1.[Br-] (stereo not drawn) | – | 146 | – |
| Cc1cccc(C)c1NC(=O)C(C)N (stereo not drawn) | – | 256 | – |
| CCCCCCCCCCCCCCCC#N | 333 | 31 | – |

| SMILES | boiling point [°C] | melting point [°C] | other results |
| --- | --- | --- | --- |
| CC=CCCl | 80.7 | – | log10 vapour pressure (mmHg): 1.84 |
| O=S(=O)(Cl)CCCl | 202 | – | – |
| O=C(Cl)CCCC(=O)Cl | 217 | – | log10 vapour pressure (mmHg): -0.932 |
| C=CCCCCCCCCCCCCCCCCCCCC | 367 | 38 | – |
| O=S(=O)(Cl)c1cccc2ccccc12 | – | 68 | – |
| O=C(/C=C/c1cccc([N+](=O)[O-])c1)c1ccccc1 | – | 146 | – |
| CCOC(C)=O | 77.1 | -83.6 | log10 Henry constant (atm·m³/mol): -3.87; log10 Koa: 2.7; log10 vapour pressure (mmHg): 1.97; ready biodegradability: readily biodegradable |
| Sc1cccc(Cl)c1 | 206 | – | – |
| CCOC(=O)c1cccc(Cl)c1 | 243 | – | – |
| COC(=O)c1cccc(C)c1O | 235 | 29 | – |
| CC(C)CC=NO | 161 | 48.5 | – |
| CC#CCCO | 154 | – | – |
| CCC#CCCCCC | 157 | – | – |
| Cc1ccccc1NC(=S)Nc1ccccc1C | – | 158 | – |
| CC1Cc2ccccc2C1 | 195 | – | – |
| CC(=O)c1ccc(I)cc1 | – | 86 | – |
| CCCCN(CC)C(=O)SCCC | 202 | -22 | log10 Koc (L/kg): 2.8; log10 vapour pressure (mmHg): -1.05; ready biodegradability: readily biodegradable |
| Cc1ccccc1C(C)C | 178 | -71.5 | log10 vapour pressure (mmHg): 0.176; ready biodegradability: not readily biodegradable |
| O=C(c1ccccc1)C(O)c1ccccc1 (stereo not drawn) | – | – | ready biodegradability: readily biodegradable |
| CC(C)[C@@H]1CCCCC1=O | – | 72.5 | – |
| CCCCCCCCCCCCCC(=O)CC | – | 43 | – |
| C1CN(SSN2CCOCC2)CCO1 | – | 124 | ready biodegradability: not readily biodegradable |
| CN1C(=O)CN=C(c2ccccc2)c2cc([N+](=O)[O-])ccc21 | – | 82 | – |
| CCOC(=O)Cc1[nH]nc2ccc(Cl)cc12 | – | 77 | – |
| Clc1cc2c(oc3c(Cl)c(Cl)ccc32)c(Cl)c1Cl | – | – | log10 biotransformation half-life (days): 0.9 |
| c1ccc(COc2ccc3[nH]ccc3c2)cc1 | – | 102 | – |

| SMILES | boiling point [°C] | melting point [°C] | other results |
| --- | --- | --- | --- |
| CCCOCCN(C(=O)CCl)c1c(CC)cccc1CC | – | – | log10 Henry constant (atm·m³/mol): -8.1; log10 vapour pressure (mmHg): -6 |
| C=CC(=O)OCC(C)C | 132 | -61 | log10 vapour pressure (mmHg): 0.907 |
| CCCCCCCCCCCCCCCl | 292 | 4.9 | log10 vapour pressure (mmHg): -3.14 |
| NC(=O)c1cccc2ccccc12 | – | 206 | – |
| CCC(C(=O)O)c1ccc(-c2ccccc2)cc1 (stereo not drawn) | – | 124 | – |
| COC(=O)C1(S(=O)(=O)c2ccccc2)CCC1 | – | 108 | – |
| CC(C)(C)c1ccc(O)c(N)c1 | – | 161 | – |
| OCCN1CN(CCO)CN(CCO)C1 | – | – | ready biodegradability: readily biodegradable |
| CC(C)C(C)(C)C(C)C | 142 | -102 | log10 vapour pressure (mmHg): 0.946 |
| CC1(C)CC(N)CC(C)(CN)C1 (stereo not drawn) | 247 | 10 | log10 vapour pressure (mmHg): -1.82; ready biodegradability: not readily biodegradable |
| N#CCN(CC#N)CC#N | – | 126 | log10 vapour pressure (mmHg): -6.5 |
| [O-][n+]1ccccc1 | – | 65.5 | – |
| c1ccc(-n2cccc2)cc1 | 234 | 62 | – |
| CCCCC/C=C\C/C=C\C/C=C\C/C=C\CCCC(=O)O | – | -49.5 | – |
| CC1(C)CCCC(C)(C)N1 | 156 | – | – |
| O=[N+]([O-])c1cc(Cl)c(Cl)c(Cl)c1 | – | 72.5 | – |
| FC1=C(F)C(F)(F)C1(F)F | 5.5 | -60 | – |
| CN(C(=O)C(Cl)Cl)c1ccc(O)cc1 | – | 175 | – |
| c1ccc2occc2c1 | 174 | – | log10 vapour pressure (mmHg): -0.356 |
| O=C(/C=C/c1ccccc1)c1ccccc1 | 346 | 57.5 | – |
| C=CCc1cc(OC)c(OC)c(OC)c1OC | – | 25 | – |
| C1=CCC2CC=CC2C1 (stereo not drawn) | – | – | ready biodegradability: not readily biodegradable |
| Clc1cc(Cl)c2c(oc3c(Cl)cc(Cl)c(Cl)c32)c1Cl | – | – | log10 BCF: 2.96 |
| CCCCC/C=C\C/C=C\CCCCCCCC(=O)OC | – | -35 | log10 vapour pressure (mmHg): -5.44 |
| CC(C)CCOC=O | 124 | -93.5 | log10 Henry constant (atm·m³/mol): -3.17; log10 vapour pressure (mmHg): 1.18 |
| CCN(CC)[N+](=O)[O-] | 206 | – | – |
